Measurements taken from US6635621B1, “Cysteine protease inhibitors” (Naeja Pharmaceutical Inc., priority 1999, dated 2003).

Assays:
[1] = molecular target: cathepsin S (Homo sapiens, UniProt P25774); experiment: In vitro assay for inhibition of cathepsin S; assay type: biochemical; details: r cathepsin S, substrate N-CBZ-Val-Val-Arg-AMC, pH 6.5, 10 min incubation at room temperature
Description: In Vitro Assay Procedure for Cathepsin S
To a 170 μl of enzyme-buffer mixture (enzyme: r cathepsin S, diluted to give approximate 30 F units/min, buffer: 100 mM sodium phosphate, 1 mM EDTA, 5 mM DTT, 0.01% Brij, pH 6.5) a 10 μL of inhibitor (dissolved in DMSO) was added. After 10 min of incubation at room temperature, a 20 μl of 1.2 mM substrate (N-CBZ-Val-Val-Arg-AMC, dissolved in DMSO) was added to initiate reaction. Reading is followed up for 10 min at the fluoroscan II plate reader (excitation at 380 nm emission at 460 nm).
(§1) A plot of percentage of inhibition vs inhibitor concentration is obtained, and IC50 is determined using a linear regression calculations (concentration of inhibitor which will give 50% inhibition).

[2] = molecular target: rat cathepsin B (Rattus norvegicus, UniProt P00787); experiment: In vitro assay for inhibition of cathepsin B; assay type: biochemical; details: r rat cathepsin B, substrate N-CBZ-Phe-Arg-AMC, pH 5.1, 10 min incubation at room temperature
Sequence of rat cathepsin B (P00787 80-333): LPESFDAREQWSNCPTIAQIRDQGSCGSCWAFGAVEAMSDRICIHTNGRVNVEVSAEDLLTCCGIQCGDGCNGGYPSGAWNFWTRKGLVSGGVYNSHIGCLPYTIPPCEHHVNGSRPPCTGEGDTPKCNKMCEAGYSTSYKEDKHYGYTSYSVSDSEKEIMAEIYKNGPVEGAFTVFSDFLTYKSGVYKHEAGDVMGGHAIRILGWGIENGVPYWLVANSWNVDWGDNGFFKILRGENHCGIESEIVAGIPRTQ
Description: In Vitro Assay Procedure for Cathepsin B
The compounds of formula I were tested for inhibition of cathepsin B using the known method (A. J. Barret et al., Biochem. J. 1982, 201, 189-198). To a 170 μl of enzyme-buffer mixture (enzyme: r rat cathepsin B, diluted to give approximate 10 F units/min, buffer: 56 mM sodium acetate, 1.124 mM EDTA, 10 mM DTT, pH 5.1) a 10 μL of inhibitor (dissolved in DMSO) was added. After 10 min of incubation at room temperature, a 20 μl of 5 mM substrate (N-CBZ-Phe-Arg-AMC, dissolved in DMSO) was added to initiate reaction. Reading is followed up for 10 min at the fluoroscan reader (excitation at 380 nm emission at 460 nm).
as §1

[3] = molecular target: T1, cathepsin K (Homo sapiens, UniProt P43235); experiment: In vitro assay for inhibition of cathepsin K; assay type: biochemical; details: r cathepsin K, substrate N-CBZ-Phe-Arg-AMC, pH 5.5, 10 min incubation at room temperature
T1 sequence (P43235 115-329): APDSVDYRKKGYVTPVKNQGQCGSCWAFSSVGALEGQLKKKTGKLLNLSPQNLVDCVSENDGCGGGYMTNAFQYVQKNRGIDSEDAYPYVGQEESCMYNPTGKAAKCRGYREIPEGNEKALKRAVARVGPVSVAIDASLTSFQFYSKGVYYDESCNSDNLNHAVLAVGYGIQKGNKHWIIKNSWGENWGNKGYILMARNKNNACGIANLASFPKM
Description: In Vitro Assay Procedure for Cathepsin K
To a 170 μl of enzyme-buffer mixture (enzyme: r cathepsin K, diluted to give approximate 30 F units/min, buffer: 100 mM sodium acetate, 5 mM EDTA, 20 mM L-cysteine, 0.01% Brij, pH 5.5) a 10 μL of inhibitor (dissolved in DMSO) was added. After 10 min of incubation at room temperature, a 20 μl of 2.7 mM substrate (N-CBZ-Phe-Arg-AMC, dissolved in DMSO) was added to initiate reaction. Reading is followed up for 10 min at the fluoroscan II plate reader (excitation at 380 nm emission at 460 nm).
as §1

[4] = molecular target: rat cathepsin L (Rattus norvegicus, UniProt P07154); experiment: In vitro assay for inhibition of cathepsin L; assay type: biochemical; details: r rat cathepsin L, substrate N-CBZ-Phe-Arg-AMC, pH 5.0, 10 min incubation at room temperature
Sequence of rat cathepsin L (P07154 114-334): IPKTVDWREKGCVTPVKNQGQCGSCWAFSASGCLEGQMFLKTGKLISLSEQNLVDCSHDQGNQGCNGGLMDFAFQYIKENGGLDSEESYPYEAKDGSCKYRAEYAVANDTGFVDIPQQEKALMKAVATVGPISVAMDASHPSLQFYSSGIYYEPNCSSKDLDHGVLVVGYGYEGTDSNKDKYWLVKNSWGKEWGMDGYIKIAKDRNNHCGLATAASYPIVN
Description: In Vitro Assay Procedure for Cathepsin L
To a 170 μl of enzyme-buffer mixture (enzyme: r rat cathepsin L, diluted to give approximate 15 F units/min, buffer: 58.8 mM sodium citrate, 1.18 mM EDTA, 235 mM sodium chloride, 5 mM […], pH 5.0) a 10 μL of inhibitor (dissolved in DMSO) was added. After 10 min of incubation at room temperature, a 20 μl of 1 mM substrate (N-CBZ-Phe-Arg-AMC, dissolved in DMSO) was added to initiate reaction. Reading is followed up for 10 min at the fluoroscan reader (excitation at 380 nm emission at 460 nm).
as §1

Sequence of cathepsin S (P25774 115-331, species assumed): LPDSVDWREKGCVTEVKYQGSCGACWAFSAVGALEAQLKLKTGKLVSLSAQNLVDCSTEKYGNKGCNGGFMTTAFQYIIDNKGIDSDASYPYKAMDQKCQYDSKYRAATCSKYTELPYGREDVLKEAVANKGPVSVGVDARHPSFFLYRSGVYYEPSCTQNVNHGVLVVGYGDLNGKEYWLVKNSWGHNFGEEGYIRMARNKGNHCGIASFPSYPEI

Row | SMILES | IC50 [1] [µM] | melting point [°C] | IC50 [2] [µM] | IC50 [3] [µM] | IC50 [4] [µM]
1 | CC(C)C[C@H](NC(=O)OCc1ccccc1)C(=O)NC(=CN)C(N)=O [Example 1, 2-(2S-2-Benzyloxycarbonylamino-2-isopropylmethyl-acetamido)-3-amino-acrylamide] | 0.069 | 80 to 90 | 4.35 | 0.011 | 0.094
2 | NC=C(NC(=O)[C@H](CC1CCCCC1)NC(=O)OCc1ccccc1)C(N)=O [Example 2, 2-(2S-2-Benzyloxycarbonylamino-2-cyclohexylmethyl-acetamido)-3-amino-acrylamide] | 0.026 | 80 to 85 | 1.17 | 1.78 | 0.072
3 | NC(=O)C(NC(=O)[C@H](Cc1ccccc1)NC(=O)OCc1ccccc1)C(O)O (stereo partly drawn) [Example 13, 2-(2S-2-Benzyloxycarbonylamino-2-benzyl-acetamido)-3,3-dihydroxy-propionamide] | 0.004 |  | 1.4 | 0.4 | 0.004
4 | CC(C)C[C@H](NC(=O)OCc1ccccc1)C(=O)NC(=CNCc1ccccc1)C(=O)NCc1ccccc1 [Example 16, 2-(2S-2-Benzyloxycarbonylamino-2-isopropylmethyl-acetamido)-3-benzylamino-N-benzyl-acrylamide] | 0.026 |  | 0.15 | 0.01 | 0.015
5 | CC(=O)N/C=C(\NC(=O)[C@H](CC1CCCCC1)NC(=O)OCc1ccccc1)C(N)=O [Example 19b, (2Z)-(2S-2-Benzyloxycarbonylamino-2-cyclohexylmethyl-acetamido)-3-acetamido-acrylamide] | 5.23 |  | > 58 | > 58 | ≥ 58
6 | CCOC(=O)/C(=C\N1CCN(C)CC1)NC(=O)[C@H](CC(C)C)NC(=O)OCc1ccccc1 [Example 21, Ethyl-2-[2S-(benzyloxycarbonylamino)-2-isopropylmethyl-acetamido]-2-(4-methylpiperazino-1-methylenyl)-acetate] | 0.3 |  | 8.21 | 0.087 | 0.21
7 | CCOC(=O)/C(=C\N1CCOCC1)NC(=O)[C@H](CC(C)C)NC(=O)OCc1ccccc1 [Example 23, Ethyl-2-[2S-(benzyloxycarbonylamino)-2-isopropylmethyl-acetamido]-2-(morpholino-1-methylenyl)-acetate] | 0.038 |  | 0.45 | 0.011 | 0.089
8 | CC(C)C[C@H](NC(=O)OCc1ccccc1)C(=O)N/C(=C/N1CCOCC1)C(=O)c1ccccc1 [Example 27, 2-[2S-(Benzyloxycarbonylamino)-2-isopropylmethyl-acetamido]-2-(morpholino-1-methylenyl)-acetophenone] | 52.2 |  | 32.3 | 0.14 | 4.24
9 | COc1ccc(C(=O)/C(=C\N2CCOCC2)NC(=O)[C@H](CC(C)C)NC(=O)OCc2ccccc2)cc1 [Example 28, 2-[2S-(Benzyloxycarbonylamino)-2-isopropylmethyl-acetamido]-2-(morpholino-1-methylenyl)-4′-methoxyacetophenone] | 1.3 |  | 1.96 | 0.016 | 0.27
10 | CC(C)C[C@H](NC(=O)OCc1ccccc1)C(=O)N/C(=C/N1CCOCC1)C(=O)c1ccc(F)cc1 [Example 29, 2-[2S-(Benzyloxycarbonylamino)-2-isopropylmethyl-acetamido]-2-(morpholino-1-methylenyl)-4′-fluoroacetophenone] | 50.3 |  | 50.3 | 0.34 | 2.01
11 | COC(=O)[C@H](Cc1ccccc1)N/C=C(/NC(=O)[C@H](Cc1ccccc1)NC(=O)OCc1ccccc1)C(N)=O [Example 30a, (2E)-(2S-2-Benzyloxycarbonylamino-2-phenylmethyl-acetamido)-3-(1-carbomethoxy-2-phenethylamino)-acrylamide] | 0.57 |  | 1.83 | 0.28 | 0.048
12 | COC(=O)[C@H](Cc1ccccc1)N/C=C(\NC(=O)[C@H](Cc1ccccc1)NC(=O)OCc1ccccc1)C(N)=O [Example 30b, (2Z)-(2S-2-Benzyloxycarbonylamino-2-phenylmethyl-acetamido)-3-(1-carbomethoxy-2-phenethylamino)-acrylamide] | 1.21 |  | 1.83 | 0.28 | 0.035
13 | COC(=O)CN/C=C(/NC(=O)[C@H](Cc1ccccc1)NC(=O)OCc1ccccc1)C(N)=O [Example 31a, (2E)-(2S-2-Benzyloxycarbonylamino-2-phenylmethyl-acetamido)-3-(1-carbomethoxy-methylamino)-acrylamide] | 0.7 |  | 0.66 | 0.13 | 0.017
14 | COC(=O)CN/C=C(\NC(=O)[C@H](Cc1ccccc1)NC(=O)OCc1ccccc1)C(N)=O [Example 31b, (2Z)-(2S-2-Benzyloxycarbonylamino-2-phenylmethyl-acetamido)-3-(1-carbomethoxy-methylamino)-acrylamide] | 0.43 |  | 0.43 | 0.09 | 0.017

Further lines, results first:

Row | IC50 [1] [µM] | melting point [°C] | IC50 [2] [µM] | IC50 [3] [µM] | IC50 [4] [µM] | SMILES
15 | > 3.2 |  | 50.5 | 10.7 | > 64 | CC(=O)N/C=C(\NC(=O)[C@H](CC(C)C)NC(=O)OCc1ccccc1)C(N)=O [Example 10b, (2Z)-(2S-2-Benzyloxycarbonylamino-2-isopropylmethyl-acetamido)-3-acetamido-acrylamide]
16 | 0.38 |  | 0.42 | 0.004 | 0.08 | CC(C)C[C@H](NC(=O)OCc1ccccc1)C(=O)N/C(=C/N1CCOCC1)C(=O)OC(C)(C)C [Example 20, tert-Butyl-2-[2S-(benzyloxycarbonylamino)-2-isopropylmethyl-acetamido]-2-(morpholino-1-methylenyl)-acetate]
17 | 0.42 |  | 0.08 | 0.04 | 0.04 | CCOC(=O)/C(=C\N1CCOCC1)NC(=O)[C@H](Cc1ccccc1)NC(=O)OCc1ccccc1 [Example 22, Ethyl-2-[2S-(benzyloxycarbonylamino)-2-phenylmethyl-acetamido]-2-(morpholino-1-methylenyl)-acetate]
18 | 0.0033 |  | 0.082 | 0.37 | 0.082 | CCOC(=O)/C(=C\N1CCOCC1)NC(=O)[C@H](CC1CCCCC1)NC(=O)OCc1ccccc1 [Example 24, Ethyl-2-[2S-(benzyloxycarbonylamino)-2-cyclohexylmethyl-acetamido]-2-(morpholino-1-methylenyl)-acetate]
19 | 0.18 |  | 0.06 | 0.065 | 0.18 | O=C(CCc1ccccc1)N[C@@H](Cc1ccccc1)C(=O)N/C(=C/N1CCOCC1)C(=O)OC(c1ccccc1)c1ccccc1 [Example 25, Diphenylmethyl-2-[2S-(3-phenylpropionylamino)-2-phenylmethyl-acetamido]-2-(morpholino-1-methylenyl)-acetate]
20 | 0.99 |  | 1.47 | 0.015 | 0.075 | COc1ccc(C(=O)/C(=C\N2CCOCC2)NC(=O)[C@H](CC(C)C)NC(=O)c2cc3ccccc3s2)cc1 [Example 26, 2-[2S-(Benzothiophen-2-carbonylamino)-2-isopropylmethyl-acetamido]-2-(morpholino-1-methylenyl)-4′-methoxyacetophenone]
